Reference: publication PMC4988470, “Identification of the putative binding pocket of valerenic acid on GABAA receptors using docking studies and site‐directed mutagenesis” (British Journal of Pharmacology, 2015)

What was measured:
[1] = target: α1I227Aβ3γ2S GABAA receptor (Rattus norvegicus, UniProt P62813+P63079, I254A); assay: I GABA enhancement by VA, two-microelectrode voltage clamp in Xenopus oocytes; assay type: cell-based
Excerpt: (§1) […]. […] Concentration‐response curves were generated, and the data were fitted by non‐linear regression analysis using ORIGIN software (OriginLab Corporation, Northampton, MA, USA). Data were fitted to the Hill equation: y=min+max−min*x^n/k^nH+x^nH k corresponds to the EC50 value; x‐values are logs of concentration, and n H is the Hill coefficient. Each data point represents the mean ± SEM from ≥3 oocytes and two oocyte batches.
(§2) Follicle membranes covering oocytes were enzymatically digested with 2 mg·mL^−1 collagenase (type 1A). Mutations β3T262A, β3T262S, β3N265S, β3T266A, β3R269A, β3M286A, β3M286W and β3F289S in the β3‐subunit and α1I227A, α1L231A, α1M235A, α1M235W and α1L268A in the α1 subunit were introduced by site‐directed mutagenesis using the QuikChange mutagenesis kit (Agilent Technologies, Vienna, Austria). The coding regions of plasmids were sequenced before experimental use. After cDNA linearization, capped cRNA transcripts were produced using the mMESSAGE mMACHINE® T7 transcription kit (Life Technologies). Capped transcripts were polyadenylated using yeast poly(A)polymerase, diluted in nuclease‐free water and stored before injection at −80°C.
(§3) One day after isolation, the oocytes were injected with about 10–50 nL of nuclease‐free water containing the different rat cRNAs (100–2000 ng·μL^−1 per subunit). For expression of wild‐type α1β3γ2S and mutant receptors, cRNAs were mixed in a ratio of 1:1:10 (Boileau et al., 2002). Electrophysiological experiments were performed using the two‐microelectrode voltage clamp technique at a holding potential of −70 mV making use of a TURBO TEC 01C amplifier (NPI Electronic, Tamm, Germany) and an Axon Digidata 1322A interface (Molecular Devices, Sunnyvale, CA, USA). Data acquisition was carried out using PCLAMP v.9.2 (Molecular Devices, Sunnyvale, CA). The bath solution contained 90 mM NaCl, 1 mM KCl, 1 mM MgCl2, 1 mM CaCl2 and 5 mM HEPES (adjusted to pH 7.4 using 1 M NaOH). Microelectrodes were filled with 2 M KCl and had resistances between 1 and 3 MΩ (Khom et al., 2006).
(§4) Drug or control solutions were applied by means of a TECAN Miniprep 60 permitting automation of the experiments. […] […]. Oocytes with maximal current amplitudes >5 μA were discarded to exclude voltage‐clamp errors (Khom et al., 2006).

[2] = target: α1L231Aβ3γ2S GABAA receptor (Rattus norvegicus, UniProt P62813+P63079, L258A); assay: as above; assay type: cell-based
Excerpt: as §1, §2, §3, §4

[3] = target: α1L268Aβ3γ2S GABAA receptor (Rattus norvegicus, UniProt P62813+P63079, L295A); assay: as above; assay type: cell-based
Excerpt: as §1, §2, §3, §4

[4] = target: α1M235Aβ3γ2S GABAA receptor (Rattus norvegicus, UniProt P62813+P63079, M262A); assay: as above; assay type: cell-based
Excerpt: as §1, §2, §3, §4

[5] = target: α1M235Wβ3γ2S GABAA receptor (Rattus norvegicus, UniProt P62813+P63079, M262W); assay: as above; assay type: cell-based
Excerpt: as §1, §2, §3, §4

[6] = target: α1β3F289Sγ2S GABAA receptor (Rattus norvegicus, UniProt P62813+P63079, F314S); assay: as above; assay type: cell-based
Excerpt: as §1, §2, §3, §4

[7] = target: α1β3M286Aγ2S GABAA receptor (Rattus norvegicus, UniProt P62813+P63079, M311A); assay: as above; assay type: cell-based
Excerpt: as §1, §2, §3, §4

[8] = target: α1β3M286Wγ2S GABAA receptor (Rattus norvegicus, UniProt P62813+P63079, M311W); assay: as above; assay type: cell-based
Excerpt: as §1, §2, §3, §4

[9] = target: α1β3N265Sγ2S GABAA receptor (Rattus norvegicus, UniProt P62813+P63079, N290S); assay: as above; assay type: cell-based
Excerpt: as §1, §2, §3, §4

[10] = target: α1β3R269Aγ2S GABAA receptor (Rattus norvegicus, UniProt P62813+P63079, R294A); assay: as above; assay type: cell-based
Excerpt: as §1, §2, §3, §4

[11] = target: α1β3T262Aγ2S GABAA receptor (Rattus norvegicus, UniProt P62813+P63079, T287A); assay: as above; assay type: cell-based
Excerpt: as §1, §2, §3, §4

[12] = target: α1β3T262Sγ2S GABAA receptor (Rattus norvegicus, UniProt P62813+P63079, T287S); assay: as above; assay type: cell-based
Excerpt: as §1, §2, §3, §4

[13] = target: α1β3T266Aγ2S GABAA receptor (Rattus norvegicus, UniProt P62813+P63079, T291A); assay: as above; assay type: cell-based
Excerpt: as §1, §2, §3, §4

α1β3γ2S GABAA receptor = α1β3γ2S GABAA receptor (Rattus norvegicus, UniProt P62813+P63079); assay: as above; assay type: cell-based
Excerpt: as §1, §2, §3, §4

GABAA receptors = test system: GABAA receptors; parameters: method as in Khom et al., 2007; details: high concentrations; ref Khom et al., 2007; cited from earlier work
β1‐containing channels = test system: β1‐containing channels; parameters: method as in Khom et al., 2007; details: ref Khom et al., 2007; cited from earlier work
[14] = read-out: Emax of I GABA enhancement

Sequence of α1L268Aβ3γ2S GABAA receptor (P62813 28-455 L295A): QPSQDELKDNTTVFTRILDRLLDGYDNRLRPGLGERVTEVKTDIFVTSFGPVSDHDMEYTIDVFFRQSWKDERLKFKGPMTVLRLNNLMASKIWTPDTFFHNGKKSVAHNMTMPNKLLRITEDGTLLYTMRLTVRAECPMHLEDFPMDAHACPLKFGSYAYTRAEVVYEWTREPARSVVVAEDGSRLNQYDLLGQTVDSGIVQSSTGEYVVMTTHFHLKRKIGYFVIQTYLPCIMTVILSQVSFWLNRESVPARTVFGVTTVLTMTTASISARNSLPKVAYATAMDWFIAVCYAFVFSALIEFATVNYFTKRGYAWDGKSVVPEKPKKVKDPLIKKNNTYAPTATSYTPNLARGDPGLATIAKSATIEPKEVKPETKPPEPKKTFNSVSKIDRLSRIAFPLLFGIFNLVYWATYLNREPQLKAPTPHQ
Sequence of α1L268Aβ3γ2S GABAA receptor (P63079 26-473): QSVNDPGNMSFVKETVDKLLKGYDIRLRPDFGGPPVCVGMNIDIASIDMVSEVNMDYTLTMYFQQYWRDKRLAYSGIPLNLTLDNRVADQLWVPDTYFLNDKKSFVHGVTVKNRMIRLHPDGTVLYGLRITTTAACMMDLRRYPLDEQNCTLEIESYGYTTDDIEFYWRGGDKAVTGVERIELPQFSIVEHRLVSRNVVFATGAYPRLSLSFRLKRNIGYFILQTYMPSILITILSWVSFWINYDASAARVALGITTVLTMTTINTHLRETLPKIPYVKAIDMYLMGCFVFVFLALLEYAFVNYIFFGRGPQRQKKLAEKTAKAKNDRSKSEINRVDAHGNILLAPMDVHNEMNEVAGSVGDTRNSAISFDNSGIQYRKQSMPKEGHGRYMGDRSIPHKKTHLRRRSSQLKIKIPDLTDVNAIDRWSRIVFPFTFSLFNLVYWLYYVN
Sequence of α1L268Aβ3γ2S GABAA receptor (P18508 39-466 partner): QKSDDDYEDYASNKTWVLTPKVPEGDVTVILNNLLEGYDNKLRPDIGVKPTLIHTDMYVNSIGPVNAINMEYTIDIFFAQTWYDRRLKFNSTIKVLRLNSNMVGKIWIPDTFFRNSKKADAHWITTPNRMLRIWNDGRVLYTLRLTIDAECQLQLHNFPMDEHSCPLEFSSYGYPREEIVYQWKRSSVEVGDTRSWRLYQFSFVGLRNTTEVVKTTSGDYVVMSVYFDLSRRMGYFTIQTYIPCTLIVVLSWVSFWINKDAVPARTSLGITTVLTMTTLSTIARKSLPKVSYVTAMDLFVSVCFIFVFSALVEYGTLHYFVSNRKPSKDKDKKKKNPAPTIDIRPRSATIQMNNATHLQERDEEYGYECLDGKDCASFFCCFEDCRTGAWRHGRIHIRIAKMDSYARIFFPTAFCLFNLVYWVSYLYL
Sequence of α1M235Aβ3γ2S GABAA receptor (P62813 28-455 M262A): as the sequence (P62813 28-455 L295A) above, with M235A, A268L counted along it
Sequence of α1M235Aβ3γ2S GABAA receptor (P63079 26-473): as the sequence (P63079 26-473) above
Sequence of α1M235Aβ3γ2S GABAA receptor (P18508 39-466 partner): as the sequence (P18508 39-466 partner) above
Sequence of α1I227Aβ3γ2S GABAA receptor (P62813 28-455 I254A): as the sequence (P62813 28-455 L295A) above, with I227A, A268L counted along it
Sequence of α1I227Aβ3γ2S GABAA receptor (P63079 26-473): as the sequence (P63079 26-473) above
Sequence of α1I227Aβ3γ2S GABAA receptor (P18508 39-466 partner): as the sequence (P18508 39-466 partner) above

## CC1=C2[C@H](/C=C(\C)C(=O)O)CC[C@@H](C)[C@H]2CC1 [VA, valerenic acid]
[1]
  EC50: 40.8 ± 8.4 µM
[1]; [14]
  Emax: 776 ± 60%
[1]; α1I227Aβ3γ2S, GABA EC3–7, mean ± SEM
  n H (Hill coefficient, I GABA enhancement): 1.13 ± 0.08
[2]
  EC50: 18.8 ± 4.4 µM
[2]; [14]
  Emax: 703 ± 82%
[2]; α1L231Aβ3γ2S, GABA EC3–7, mean ± SEM
  n H (Hill coefficient, I GABA enhancement): 1.37 ± 0.18
[3]
  EC50: 19.9 ± 5.6 µM
[3]; [14]
  Emax: 582 ± 80%
[3]; α1L268Aβ3γ2S, GABA EC3–7, mean ± SEM
  n H (Hill coefficient, I GABA enhancement): 1.06 ± 0.13
[4]
  EC50: 21.1 ± 2.8 µM
[4]; [14]
  Emax: 546 ± 28%
[4]; α1M235Aβ3γ2S, GABA EC3–7, mean ± SEM
  n H (Hill coefficient, I GABA enhancement): 1.19 ± 0.08
[5]
  EC50: 24.3 ± 7.7 µM
[5]; [14]
  Emax: 193 ± 16%
[5]; α1M235Wβ3γ2S, GABA EC3–7, mean ± SEM
  n H (Hill coefficient, I GABA enhancement): 1.37 ± 0.34
[6]
  EC50: 181 ± 21.6 µM
[6]; [14]
  Emax: 222 ± 12%
[6]; α1β3F289Sγ2S versus α1β3γ2S
  rightward shift of VA's potency versus wild type: ninefold
[6]; α1β3F289Sγ2S, GABA EC3–7, mean ± SEM
  n H (Hill coefficient, I GABA enhancement): 1.20 ± 0.07
[7]
  EC50: 60.1 ± 18.5 µM
[7]; [14]
  Emax: 283 ± 52%
[7]; α1β3M286Aγ2S, GABA EC3–7, mean ± SEM
  n H (Hill coefficient, I GABA enhancement): 1.47 ± 0.21
[8]; [14]
  Emax: 67 ± 35%
[8]; α1β3M286Wγ2S, GABA EC3–7
  modulatory effects on I GABA (in words): did not display any significant modulatory effects
[9]
  EC50: 143 ± 67.5 µM
[9]; [14]
  Emax: 134 ± 32%
[9]; α1β3N265Sγ2S versus α1β3γ2S
  reduction of efficacy of IGABA enhancement versus wild type: approximately fivefold reduced
  reduction of potency of IGABA enhancement versus wild type: sevenfold reduction
[9]; α1β3N265Sγ2S, GABA EC3–7, mean ± SEM
  n H (Hill coefficient, I GABA enhancement): 1.33 ± 0.39
[10]
  EC50: 84.1 ± 14.7 µM
[10]; [14]
  Emax: 259 ± 22%
[10]; α1β3R269Aγ2S, GABA EC3–7, mean ± SEM
  n H (Hill coefficient, I GABA enhancement): 1.63 ± 0.19
[10]; β3R269 mutated to alanine versus wild type
  reduction of efficacy of I GABA enhancement versus wild type: approximately 50%
[11]
  EC50: 2.5 ± 0.8 µM
[11]; [14]
  Emax: 573 ± 96%
[11]; α1β3T262Aγ2S, GABA EC3–7, mean ± SEM
  n H (Hill coefficient, I GABA enhancement): 1.00 ± 0.16
[12]
  EC50: 3.4 ± 0.7 µM
[12]; [14]
  Emax: 578 ± 42%
[12]; α1β3T262Sγ2S, GABA EC3–7, mean ± SEM
  n H (Hill coefficient, I GABA enhancement): 0.85 ± 0.15
[13]
  EC50: 7.5 ± 1.5 µM
[13]; [14]
  Emax: 666 ± 55%
[13]; α1β3T266Aγ2S, GABA EC3–7, mean ± SEM
  n H (Hill coefficient, I GABA enhancement): 1.26 ± 0.1
α1β3γ2S GABAA receptor
  EC50: 20.2 ± 5.2 µM
α1β3γ2S GABAA receptor; [14]
  Emax: 632 ± 88%
α1β3γ2S GABAA receptor; α1β3γ2S, GABA EC3–7, mean ± SEM
  n H (Hill coefficient, I GABA enhancement): 1.50 ± 0.29
GABAA receptors
  concentration at which VA directly activates GABAA receptors: ≥ 30 µM
  concentration at which VA inhibits GABAA receptors: ≥ 100 µM
β1‐containing channels
  effects on β1‐containing channels: negligible effects
